# According to patent US10344025B2, “GLS1 inhibitors for treating disease” (Board of Regents, The University of Texas System, priority 2014, dated 2019):
# Legend:
# [1] = molecular target: purified recombinant human GAC (GLS1) (Homo sapiens (Human), UniProt O94925); experiment: GLS1 Enzymatic Activity Assay (dual-coupled enzymatic assay, resorufin/Amplex UltraRed readout); format: biochemical;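 also: glutamate from GAC coupled via glutamate oxidase and peroxidase to resorufin, read as fluorescence (ex 530, em 590 nm) kinetically or at 20 min, four-parameter logistic IC50 fit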
# purified recombinant human GAC (GLS1), sequence (O94925 other isoform, or with tags, fused parts or gaps): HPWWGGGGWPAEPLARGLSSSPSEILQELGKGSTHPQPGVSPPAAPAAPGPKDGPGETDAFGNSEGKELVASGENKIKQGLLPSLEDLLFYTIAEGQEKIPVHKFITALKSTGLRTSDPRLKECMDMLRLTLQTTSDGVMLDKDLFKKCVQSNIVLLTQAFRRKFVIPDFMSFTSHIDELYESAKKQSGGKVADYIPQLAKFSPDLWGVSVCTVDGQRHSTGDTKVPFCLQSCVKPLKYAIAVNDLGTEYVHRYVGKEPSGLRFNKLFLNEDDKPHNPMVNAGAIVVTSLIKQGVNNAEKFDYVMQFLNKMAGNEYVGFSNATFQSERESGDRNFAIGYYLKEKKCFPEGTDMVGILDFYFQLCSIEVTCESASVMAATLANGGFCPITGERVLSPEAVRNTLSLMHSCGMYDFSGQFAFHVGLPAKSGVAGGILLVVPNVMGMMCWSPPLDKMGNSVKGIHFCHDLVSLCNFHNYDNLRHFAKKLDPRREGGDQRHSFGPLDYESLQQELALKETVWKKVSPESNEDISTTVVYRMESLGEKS
# [2] = tested on: A549 cells; experiment: Proliferation Assay (A549 viability, Cell Titer Fluor, 72 hours); format: cell-based; details: Homo sapiens, A549, 72 h
# Summary of the method: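 Cell Titer Fluor fluorescence after 72 h compound treatment (0.5% DMSO, 37 °C, 5% CO2) of A549 cells plated 24 h earlier at 1000/well. Four-parameter logistic fitting gave IC50.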
SMILES,IC50 [1],EC50 [2]
"O=C(Cc1ccccn1)Nc1cn(CC(F)CCn2cc(C(=O)NCc3cc(C(F)(F)F)ccn3)nn2)nn1 (stereo not drawn) [Example 399, 1-(3-fluoro-4-{4-[2-(pyridin-2-yl)acetamido]-1H-1,2,3-triazol-1-yl}butyl)-N-{[4-(trifluoromethyl)pyridin-2-yl]methyl}-1H-1,2,3-triazole-4-carboxamide]",< 100 nM,100 to 500 nM
"Cc1ccc(CC(=O)Nc2cn(CC(F)CCn3cc(C(=O)NCc4cc(C(F)(F)F)ccn4)nn3)nn2)cn1 (stereo not drawn) [Example 400, 1-(3-fluoro-4-{4-[2-(6-methylpyridin-3-yl)acetamido]-1H-1,2,3-triazol-1-yl}butyl)-N-{[4-(trifluoromethyl)pyridin-2-yl]methyl}-1H-1,2,3-triazole-4-carboxamide]",< 100 nM,100 to 500 nM
"O=C(CN1CC(F)(F)C1)Nc1cn(CC(F)CCn2cc(C(=O)NCc3cc(C(F)(F)F)ccn3)nn2)nn1 (stereo not drawn) [Example 402, 1-(4-{4-[2-(3,3-difluoroazetidin-1-yl)acetamido]-1H-1,2,3-triazol-1-yl}-3-fluorobutyl)-N-{[4-(trifluoromethyl)pyridin-2-yl]methyl}-1H-1,2,3-triazole-4-carboxamide]",100 to 500 nM,500 to 5000 nM
"O=C(Cc1cccc(OC(F)(F)F)c1)Nc1cn(CCC(F)Cn2cc(C(=O)NCc3ccccn3)nn2)nn1 (stereo not drawn) [Example 403, 1-[2-fluoro-4-(4-{2-[3-(trifluoromethoxy)phenyl]acetamido}-1H-1,2,3-triazol-1-yl)butyl]-N-(pyridin-2-ylmethyl)-1H-1,2,3-triazole-4-carboxamide]",< 100 nM,< 100 nM
"Cc1ccc(CC(=O)Nc2cn(CCC(F)Cn3cc(C(=O)NCc4cc(OC(F)(F)F)ccc4F)nn3)nn2)cn1 (stereo not drawn) [Example 405, 1-(2-fluoro-4-{4-[2-(6-methylpyridin-3-yl)acetamido]-1H-1,2,3-triazol-1-yl}butyl)-N-{[2-fluoro-5-(trifluoromethoxy)phenyl]methyl}-1H-1,2,3-triazole-4-carboxamide]",< 100 nM,< 100 nM
"O=C(Cc1cccc(OC(F)(F)F)c1)Nc1cn(CCC(F)Cn2cc(C(=O)NCc3cc(C(F)(F)F)ccn3)nn2)nn1 (stereo not drawn) [Example 407, 1-[2-fluoro-4-(4-{2-[3-(trifluoromethoxy)phenyl]acetamido}-1H-1,2,3-triazol-1-yl)butyl]-N-{[4-(trifluoromethyl)pyridin-2-yl]methyl}-1H-1,2,3-triazole-4-carboxamide]",< 100 nM,< 100 nM
"O=C(Cc1cccc(OC(F)(F)F)c1)Nc1cn(CCC(F)Cn2cc(C(=O)NCc3cccc(OC(F)(F)F)c3)nn2)nn1 (stereo not drawn) [Example 408, 1-[2-fluoro-4-(4-{2-[3-(trifluoromethoxy)phenyl]acetamido}-1H-1,2,3-triazol-1-yl)butyl]-N-{[3-(trifluoromethoxy)phenyl]methyl}-1H-1,2,3-triazole-4-carboxamide]",< 100 nM,< 100 nM
"O=C(CN1CC(F)C1)Nc1cn(CC(F)CCn2cc(C(=O)NCc3ncccc3F)nn2)nn1 (stereo not drawn) [Example 409, 1-(3-fluoro-4-{4-[2-(3-fluoroazetidin-1-yl)acetamido]-1H-1,2,3-triazol-1-yl}butyl)-N-[(3-fluoropyridin-2-yl)methyl]-1H-1,2,3-triazole-4-carboxamide]",500 to 5000 nM,> 5000 nM
"O=C(CN1CC(F)(F)C1)Nc1cn(CC(F)CCn2cc(C(=O)NCc3ncccc3F)nn2)nn1 (stereo not drawn) [Example 410, 1-(4-{4-[2-(3,3-difluoroazetidin-1-yl)acetamido]-1H-1,2,3-triazol-1-yl}-3-fluorobutyl)-N-[(3-fluoropyridin-2-yl)methyl]-1H-1,2,3-triazole-4-carboxamide]",500 to 5000 nM,500 to 5000 nM
"O=C(Cc1cc(OC(F)(F)F)ccc1F)Nc1cn(CCCCn2cc(C(=O)NCc3cc(C(F)(F)F)ccn3)nn2)nn1 [Example 413, 1-[4-(4-{2-[2-fluoro-5-(trifluoromethoxy)phenyl]acetamido}-1H-1,2,3-triazol-1-yl)butyl]-N-{[4-(trifluoromethyl)pyridin-2-yl]methyl}-1H-1,2,3-triazole-4-carboxamide]",< 100 nM,< 100 nM
"O=C(Cc1cc(Cl)ccc1F)Nc1cn(CCCCn2cc(C(=O)NCc3cc(Cl)ccc3F)nn2)nn1 [Example 415, 1-(4-{4-[2-(5-chloro-2-fluorophenyl)acetamido]-1H-1,2,3-triazol-1-yl}butyl)-N-[(5-chloro-2-fluorophenyl)methyl]-1H-1,2,3-triazole-4-carboxamide]",< 100 nM,< 100 nM
"O=C(Cc1cc(OC(F)(F)F)ccc1F)Nc1cn(CCC(F)Cn2cc(C(=O)NCc3cccc(OC(F)(F)F)c3)nn2)nn1 (stereo not drawn) [Example 416, 1-[2-fluoro-4-(4-{2-[2-fluoro-5-(trifluoromethoxy)phenyl]acetamido}-1H-1,2,3-triazol-1-yl)butyl]-N-{[3-(trifluoromethoxy)phenyl]methyl}-1H-1,2,3-triazole-4-carboxamide]",< 100 nM,< 100 nM
"O=C(Cc1cc(OC(F)(F)F)ccc1F)Nc1cn(CCC(F)Cn2cc(C(=O)NCc3cc(C(F)(F)F)ccn3)nn2)nn1 (stereo not drawn) [Example 418, 1-[2-fluoro-4-(4-{2-[2-fluoro-5-(trifluoromethoxy)phenyl]acetamido}-1H-1,2,3-triazol-1-yl)butyl]-N-{[4-(trifluoromethyl)pyridin-2-yl]methyl}-1H-1,2,3-triazole-4-carboxamide]",< 100 nM,< 100 nM
"O=C(Cc1ccccn1)Nc1cn(CCC(F)Cn2cc(C(=O)NCc3cc(OC(F)(F)F)ccc3F)nn2)nn1 (stereo not drawn) [Example 419, 1-(2-fluoro-4-{4-[2-(pyridin-2-yl)acetamido]-1H-1,2,3-triazol-1-yl}butyl)-N-{[2-fluoro-5-(trifluoromethoxy)phenyl]methyl}-1H-1,2,3-triazole-4-carboxamide]",< 100 nM,< 100 nM

# More lines, now with the values ahead:
IC50 [1],EC50 [2],SMILES
< 100 nM,< 100 nM,"Cc1ccc(CNC(=O)c2cn(CC(F)CCn3cc(NC(=O)Cc4cccc(OC(F)(F)F)c4)nn3)nn2)cn1 (stereo not drawn) [Example 396, 1-[2-fluoro-4-(4-{2-[3-(trifluoromethoxy)phenyl]acetamido}-1H-1,2,3-triazol-1-yl)butyl]-N-[(6-methylpyridin-3-yl)methyl]-1H-1,2,3-triazole-4-carboxamide]"
< 100 nM,< 100 nM,"CNC(=O)c1cn(CC(F)CCc2nnc(NC(=O)Cc3cc(-c4cccc(OC(F)(F)F)c4)ccn3)s2)nn1 (stereo not drawn) [Example 397, 1-(2-fluoro-4-(5-(2-(4-(3-(trifluoromethoxy)phenyl)pyridin-2-yl)acetamido)-1,3,4-thiadiazol-2-yl)butyl)-N-methyl-1H-1,2,3-triazole-4-carboxamide 2,2,2-trifluoroacetate]"
< 100 nM,< 100 nM,"O=C(Cc1cc(OC(F)(F)F)ccc1F)Nc1cn(CCC(F)Cn2cc(C(=O)NCc3ccccn3)nn2)nn1 (stereo not drawn) [Example 398, 1-[2-fluoro-4-(4-{2-[2-fluoro-5-(trifluoromethoxy)phenyl]acetamido}-1H-1,2,3-triazol-1-yl)butyl]-N-(pyridin-2-ylmethyl)-1H-1,2,3-triazole-4-carboxamide]"
100 to 500 nM,500 to 5000 nM,"O=C(CN1CC(F)C1)Nc1cn(CC(F)CCn2cc(C(=O)NCc3cc(C(F)(F)F)ccn3)nn2)nn1 (stereo not drawn) [Example 401, 1-(3-fluoro-4-{4-[2-(3-fluoroazetidin-1-yl)acetamido]-1H-1,2,3-triazol-1-yl}butyl)-N-{[4-(trifluoromethyl)pyridin-2-yl]methyl}-1H-1,2,3-triazole-4-carboxamide]"
< 100 nM,< 100 nM,"O=C(Cc1cc(OC(F)(F)F)ccc1F)Nc1cn(CCC(F)Cn2cc(C(=O)NCc3cc(OC(F)(F)F)ccc3F)nn2)nn1 (stereo not drawn) [Example 404, 1-[2-fluoro-4-(4-{2-[2-fluoro-5-(trifluoromethoxy)phenyl]acetamido}-1H-1,2,3-triazol-1-yl)buty]-N-{[2-fluoro-5-(trifluoromethoxy)phenyl]methyl}-1H-1,2,3-triazole-4-carboxamide]"
< 100 nM,< 100 nM,"O=C(Cc1cccc(OC(F)(F)F)c1)Nc1cn(CCC(F)Cn2cc(C(=O)NCc3ncccc3F)nn2)nn1 (stereo not drawn) [Example 406, 1-[2-fluoro-4-(4-{2-[3-(trifluoromethoxy)phenyl]acetamido}-1H-1,2,3-triazol-1-yl)butyl]-N-[(3-fluoropyridin-2-yl)methyl]-1H-1,2,3-triazole-4-carboxamide]"
< 100 nM,< 100 nM,"O=C(Cc1cccc(OC(F)(F)F)c1)Nc1cn(CC(F)CCn2cc(C(=O)NCc3ccc(C(F)(F)F)nc3)nn2)nn1 (stereo not drawn) [Example 411, 1-[3-fluoro-4-(4-{2-[3-(trifluoromethoxy)phenyl]acetamido}-1H-1,2,3-triazol-1-yl)butyl]-N-{[6-(trifluoromethyl)pyridin-3-yl]methyl}-1H-1,2,3-triazole-4-carboxamide]"
< 100 nM,< 100 nM,"O=C(Cc1cc(OC(F)(F)F)ccc1F)Nc1cn(CC(F)CCn2cc(C(=O)NCc3ccc(C(F)(F)F)nc3)nn2)nn1 (stereo not drawn) [Example 412, 1-[3-fluoro-4-(4-{2-[2-fluoro-5-(trifluoromethoxy)phenyl]acetamido}-1H-1,2,3-triazol-1-yl)butyl]-N-{[6-(trifluoromethyl)pyridin-3-yl]methyl}-1H-1,2,3-triazole-4-carboxamide]"
< 100 nM,< 100 nM,"O=C(Cc1cccc(OC(F)(F)F)c1)Nc1cn(CCCCn2cc(C(=O)NCc3cc(C(F)(F)F)ccn3)nn2)nn1 [Example 414, 1-[4-(4-{2-[3-(trifluoromethoxy)phenyl]acetamido}-1H-1,2,3-triazol-1-yl)butyl]-N-{[4-(trifluoromethyl)pyridin-2-yl]methyl}-1H-1,2,3-triazole-4-carboxamide]"
< 100 nM,< 100 nM,"O=C(Cc1cc(OC(F)(F)F)ccc1F)Nc1cn(CCC(F)Cn2cc(C(=O)NCc3ncccc3F)nn2)nn1 (stereo not drawn) [Example 417, 1-[2-fluoro-4-(4-{2-[2-fluoro-5-(trifluoromethoxy)phenyl]acetamido}-1H-1,2,3-triazol-1-yl)butyl]-N-[(3-fluoropyridin-2-yl)methyl]-1H-1,2,3-triazole-4-carboxamide]"
